From patent US20110268711A1, “PANCREATIC STELLATE CELL SPECIFIC PROMOTER AND USES THEREOF” (AGENCY FOR SCIENCE, TECHNOLOGY AND RESEARCH, priority 2007, published 2011)
Entries after “also recorded” stand apart in the source; their conditions may differ. Where two headings read alike, the source gives them in different places.

System: 2.2-kb hGFAP promoter (GFAP-LacZ transgene) in SAM-K cells
Type: cell-based
Settings: for induction of GFAP-lacZ transgene expression (β-Gal activity) by exogenous cytokines: TGF-β 1 and 10 ng/ml, PDGF-BB 10 ng/ml, TNF-α 10 ng/ml, 24, 32, 48 and 60 hours after treatment; for decrease in β-Gal activity: kinase inhibitor 10 μM; for decrease in β-Gal activity / decrease of relative β-Gal activity: vs 0.2% DMSO control
Description: Transfection and isolation of stable cell lines: The 2.2-kb hGFAP-LacZ (Maubach, G., et al., World J Gastroenterol, 2006, 12(5): 723-30) or the 2.2-kb hGFAP-DsRed plasmid was used to transfect PSC lines, using LIPOFECTAMINE™ 2000 (Invitrogen, CA, USA) according to the manufacturer's instructions. DsRed expression was identified under fluorescence microscope (Leica, Wetzlar, Germany). To isolate the stable clones expressing GFAPLacZ in SAM-K cell line, 24 hours after transfection, the cell culture medium was changed into medium containing Zeocin (500 μg/ml, Invitrogen, CA, USA). The single clones were isolated by dilution in the 96 well plates, the positive β-galactosidase (β-Gal) clones were identified by β-Gal staining kit from Invitrogen (CA, USA). Stable clones were maintained in culture medium containing 250 μg/ml Zeocin.
Treatment of PSCs with cell signaling inhibitors: Before treatment with different factors, SAM-K cells stably expressing the GFAP-LacZ at 70-80% confluence were starved in 0.5% FBS overnight, TGF-β (1 ng/ml, 10 ng/ml), PDBF-BB (10 ng/ml), and TNF-α (10 ng/ml) treatments were carried out at different time points, PBS buffer (0.2%) treatment served as control. Kinase inhibitors (10 μM), including LY 294002, U0126, SP600125, SB 203580, retinol and its metabolites, including retinol, 9-RA, ATRA, were applied to the cell culture medium at both 2 μM and 5 μM concentrations. Treatment in 0.2% DMSO served as control. The transgenic β-Gal activity was quantified at various times following treatment.
To obtain cryostat sections, the pancreas was removed from both GFAP-LacZ transgenic mouse and wild type mouse of the same FVB/N genetic background, and were fixed in 4% PFA fixative for 30 minutes. The fixed tissues were infiltrated overnight with 30% sucrose. Small pieces of tissue were mounted in OCT medium, and 14-μm sections were collected onto POLYSINE™ slides (Menzel GmbH & Co KG, Braunschweig, Germany). The expression of lacZ gene was detected using a staining kit from Invitrogen. The sections were stained with X-gal substrate overnight at room temperature, and subsequently counter-stained with eosin, prior to being mounted on slides with HYDROMOUNT™ (National diagnostics, Georgia, USA). To quantify the GFAP-LacZ expression, the β-Gal activity in the total cell extracts was measured with an enzymatic assay kit (Promega, WI, USA).
Statistical analysis: All quantitative results were presented as mean±SE; data were analyzed with Student t-test.

Row | Molecule | induction of GFAP-lacZ transgene expression (β-Gal activity) by exogenous cytokines | decrease in β-Gal activity (24 hours after treatment) | decrease in β-Gal activity (48 hours after treatment) | decrease of relative β-Gal activity (2 μM, 24 hours after treatment) | decrease of relative β-Gal activity (2 μM, 48 hours after treatment) | decrease of relative β-Gal activity (5 μM, 24 hours after treatment) | decrease of relative β-Gal activity (5 μM, 48 hours after treatment)
1 | TNF-α | None of the treatments specifically induced transgene expression; also recorded: No significant change in enzymatic activity |  |  |  |  |  | 
2 | C[S+]([O-])c1ccc(-c2nc(-c3ccncc3)c(-c3ccc(F)cc3)[nH]2)cc1 (centres unmarked) [SB 203580] |  | not as significant | no significant effects |  |  |  | 
3 | CC1=C(/C=C/C(C)=C/C=C/C(C)=C/CO)C(C)(C)CCC1 [retinol] |  |  |  | ~33% | 49% | ~38% | about 48%
4 | TGF-β: recombinant TGF-β1 from R&D, pro-fibrogenic cytokine | None of the treatments specifically induced transgene expression; also recorded: No significant change in enzymatic activity |  |  |  |  |  | 
5 | N#CC(=C(/N)Sc1ccccc1N)/C(C#N)=C(\N)Sc1ccccc1N [U0126] |  | approximately 40% | about 15% |  |  |  | 
6 | O=c1cc(N2CCOCC2)oc2c(-c3ccccc3)cccc12 [LY 294002] |  | ~19% | about 15% |  |  |  | 
7 | Oc1c2ccccc2c2c3c(cccc13)N=N2 [SP 600125] |  | about 25% | about 10% |  |  |  | 
8 | CC1=C(/C=C/C(C)=C\C=C\C(C)=C\C(=O)O)C(C)(C)CCC1 [9-RA, 9-cis retinoic acid] |  |  |  | about 44% | 37% | about 48% | about 46%
9 | CC1=C(/C=C/C(C)=C/C=C/C(C)=C/C(=O)O)C(C)(C)CCC1 [ATRA, all-trans retinoic acid] |  |  |  | ~42% | 33% | ~42% | ~31%
10 | PDGF-BB: recombinant platelet derived growth factor-BB from R&D (protein, UniProt P01127 82-190, looked up) Platelet-derived growth …: SLGSLTIAEPAMIAECKTRTEVFEISRRLIDRTNANFLVWPPCVEVQRCSGCCNNRNVQCRPTQVQLRPVQVRKIEIVRKKPIFKKATVTLEDHLACKCETVAAARPVT | None of the treatments specifically induced transgene expression; also recorded: No significant change in enzymatic activity |  |  |  |  |  | 
